Reference: patent publication US20080280872A1, “Benzamide Derivatives and Their Use as Glucokinase Activating Agents” (priority 2004, published 2008)

Tests used:
Zucker obese fa/fa rats = experiment: Oral Glucose Tolerance Test (OGTT); format: in vivo, rat; conditions: 10 mg/kg, given orally 120 minutes before glucose 2 g/kg; percent inhibition of blood glucose AUC vs vehicle
Description: The animals were fasted for 2 hours before use for experiments. A test compound or a vehicle was given orally 120 minutes before oral administration of a glucose solution at a dose of 2 g/kg body weight. Blood glucose levels were measured using a Accucheck glucometer from tail bled samples taken at different time points before and after administration of glucose (time course of 60 minutes). […] Percent inhibition was determined using the AUC in the vehicle-control group as zero percent inhibition.

[1] = molecular target: T1, recombinant human pancreatic GLK (Homo sapiens, UniProt P35557); experiment: Enzymatic activity of glucokinase (GLK activation, G-6-P dehydrogenase coupled, OD 340 nm); format: biochemical
T1 construct: 6-His (N); made in house; host or cells: E. coli BL21
T1 sequence (P35557 1-465): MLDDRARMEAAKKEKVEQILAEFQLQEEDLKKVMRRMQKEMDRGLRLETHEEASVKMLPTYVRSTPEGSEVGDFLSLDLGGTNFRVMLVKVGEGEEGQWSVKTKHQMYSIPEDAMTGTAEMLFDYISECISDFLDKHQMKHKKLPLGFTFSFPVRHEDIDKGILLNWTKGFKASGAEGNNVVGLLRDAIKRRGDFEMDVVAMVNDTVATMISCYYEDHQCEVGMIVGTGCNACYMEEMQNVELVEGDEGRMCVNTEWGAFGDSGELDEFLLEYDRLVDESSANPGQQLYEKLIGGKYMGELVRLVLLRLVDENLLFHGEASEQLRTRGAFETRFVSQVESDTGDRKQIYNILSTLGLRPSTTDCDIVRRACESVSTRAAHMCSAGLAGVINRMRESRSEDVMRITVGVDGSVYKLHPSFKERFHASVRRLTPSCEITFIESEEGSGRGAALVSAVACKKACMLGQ

Oral exposure = format: in vivo; conditions: compared with Example II107 in WO 03/015774

EC50 values, Example 11b compared with Example II107 in WO 03/015774 ([1]; comparison in words): broadly similar | EC50 ([1]; read-out: activating activity for glucokinase, EC50): 30 nM | oral exposure (Oral exposure): superior oral exposure
SMILES: COC[C@H](C)Oc1cc(Oc2ccc(S(C)(=O)=O)cc2)cc(C(=O)Nc2nccs2)c1 [Example 11b, 3-[(1S)-2-methoxy-(1-methylethyl)oxy]-5-[4-(methylsulfonyl)phenoxy]-N-1,3-thiazol-2-ylbenzamide]
OGTT activity (Zucker obese fa/fa rats): 29%
